Where “and” joins values, the source holds several entries; their conditions need not be identical. Equal values may be shown once. Some results are limits rather than exact numbers.

Some targets named below: ACVR2B (Homo sapiens, UniProt Q13705); CDK6 (Homo sapiens, UniProt Q00534); IRAK1 (Homo sapiens, UniProt P51617); NEK6 (Homo sapiens, UniProt Q9HC98); BMPR1A (Homo sapiens, UniProt P36894); DSTYK (Homo sapiens, UniProt Q6XUX3); LIMK2 (Homo sapiens, UniProt P53671); STK3 (Homo sapiens, UniProt Q13188).
What all share (assay): biochemical
A further experiment concerns the target T1, MAP3K3 (Homo sapiens, UniProt Q99759).
T1 sequence (Q99759 1-626): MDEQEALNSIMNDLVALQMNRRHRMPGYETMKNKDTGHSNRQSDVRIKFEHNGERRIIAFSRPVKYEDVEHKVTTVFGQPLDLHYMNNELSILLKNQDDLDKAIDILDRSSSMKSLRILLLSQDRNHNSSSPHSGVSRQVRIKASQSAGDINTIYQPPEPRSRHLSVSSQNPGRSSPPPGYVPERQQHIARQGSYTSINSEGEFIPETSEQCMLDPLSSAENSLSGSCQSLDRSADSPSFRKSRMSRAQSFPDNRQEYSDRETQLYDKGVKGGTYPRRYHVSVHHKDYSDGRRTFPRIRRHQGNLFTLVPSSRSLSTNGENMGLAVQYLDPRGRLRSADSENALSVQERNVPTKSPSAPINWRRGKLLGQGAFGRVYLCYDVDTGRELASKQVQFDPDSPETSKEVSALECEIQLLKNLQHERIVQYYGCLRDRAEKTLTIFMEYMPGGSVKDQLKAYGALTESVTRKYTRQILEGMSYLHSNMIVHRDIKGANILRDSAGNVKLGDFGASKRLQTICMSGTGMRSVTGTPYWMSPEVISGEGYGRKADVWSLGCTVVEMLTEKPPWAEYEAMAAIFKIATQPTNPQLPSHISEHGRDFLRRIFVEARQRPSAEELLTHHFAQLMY

A further experiment addresses T2, TAOK3 (Homo sapiens, UniProt Q9H2K8).
T2 sequence (Q9H2K8 1-898): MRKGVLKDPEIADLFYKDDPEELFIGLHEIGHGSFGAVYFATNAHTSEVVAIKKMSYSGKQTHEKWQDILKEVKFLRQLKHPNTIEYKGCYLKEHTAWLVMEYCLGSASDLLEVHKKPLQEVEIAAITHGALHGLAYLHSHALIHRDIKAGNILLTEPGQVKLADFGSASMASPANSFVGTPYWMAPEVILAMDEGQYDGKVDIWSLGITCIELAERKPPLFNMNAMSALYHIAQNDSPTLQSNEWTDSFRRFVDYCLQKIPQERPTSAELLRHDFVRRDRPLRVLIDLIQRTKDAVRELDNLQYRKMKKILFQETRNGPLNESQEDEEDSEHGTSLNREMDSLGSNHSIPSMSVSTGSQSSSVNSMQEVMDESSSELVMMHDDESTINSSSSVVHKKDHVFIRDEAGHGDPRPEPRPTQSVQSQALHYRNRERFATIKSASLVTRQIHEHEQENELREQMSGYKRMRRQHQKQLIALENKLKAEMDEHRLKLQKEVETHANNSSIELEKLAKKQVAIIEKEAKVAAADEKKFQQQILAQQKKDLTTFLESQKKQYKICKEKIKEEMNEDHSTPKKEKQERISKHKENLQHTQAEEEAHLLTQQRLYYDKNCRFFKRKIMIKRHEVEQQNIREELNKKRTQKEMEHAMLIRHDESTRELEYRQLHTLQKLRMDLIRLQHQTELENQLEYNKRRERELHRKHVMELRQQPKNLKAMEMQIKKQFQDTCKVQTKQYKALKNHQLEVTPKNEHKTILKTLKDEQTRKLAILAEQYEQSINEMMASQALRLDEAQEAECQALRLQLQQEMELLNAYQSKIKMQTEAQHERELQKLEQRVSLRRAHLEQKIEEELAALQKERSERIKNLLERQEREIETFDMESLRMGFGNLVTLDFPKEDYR

Chain of CDK6 (Q00534 whole entry): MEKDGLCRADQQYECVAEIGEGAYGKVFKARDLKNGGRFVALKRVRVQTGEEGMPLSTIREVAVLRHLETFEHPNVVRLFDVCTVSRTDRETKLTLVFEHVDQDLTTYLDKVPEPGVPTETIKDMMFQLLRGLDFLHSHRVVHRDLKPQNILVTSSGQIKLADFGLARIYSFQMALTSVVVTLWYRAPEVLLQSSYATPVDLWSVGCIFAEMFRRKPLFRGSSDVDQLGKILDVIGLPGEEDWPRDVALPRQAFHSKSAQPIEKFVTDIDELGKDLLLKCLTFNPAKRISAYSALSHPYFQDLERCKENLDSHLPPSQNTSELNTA
Chain of IRAK1 (P51617 whole entry): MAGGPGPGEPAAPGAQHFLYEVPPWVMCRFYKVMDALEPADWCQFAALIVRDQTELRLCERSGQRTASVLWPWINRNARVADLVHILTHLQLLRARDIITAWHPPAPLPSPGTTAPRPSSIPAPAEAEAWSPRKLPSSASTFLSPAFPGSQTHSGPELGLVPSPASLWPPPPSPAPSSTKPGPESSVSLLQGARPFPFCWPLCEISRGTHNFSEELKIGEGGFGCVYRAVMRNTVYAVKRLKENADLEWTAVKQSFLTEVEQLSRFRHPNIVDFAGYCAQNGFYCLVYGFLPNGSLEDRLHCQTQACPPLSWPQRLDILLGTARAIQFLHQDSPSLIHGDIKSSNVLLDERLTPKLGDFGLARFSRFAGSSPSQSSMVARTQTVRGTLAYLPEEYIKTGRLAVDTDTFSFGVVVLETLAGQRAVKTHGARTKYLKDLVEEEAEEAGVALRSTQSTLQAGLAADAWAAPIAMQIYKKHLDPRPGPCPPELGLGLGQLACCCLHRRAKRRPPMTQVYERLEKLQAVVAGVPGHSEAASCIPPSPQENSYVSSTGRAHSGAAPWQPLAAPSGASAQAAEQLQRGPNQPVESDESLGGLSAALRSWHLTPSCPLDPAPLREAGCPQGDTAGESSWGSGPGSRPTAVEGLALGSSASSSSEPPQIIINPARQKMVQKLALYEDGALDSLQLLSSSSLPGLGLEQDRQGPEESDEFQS
Chain of LIMK2 (P53671 whole entry): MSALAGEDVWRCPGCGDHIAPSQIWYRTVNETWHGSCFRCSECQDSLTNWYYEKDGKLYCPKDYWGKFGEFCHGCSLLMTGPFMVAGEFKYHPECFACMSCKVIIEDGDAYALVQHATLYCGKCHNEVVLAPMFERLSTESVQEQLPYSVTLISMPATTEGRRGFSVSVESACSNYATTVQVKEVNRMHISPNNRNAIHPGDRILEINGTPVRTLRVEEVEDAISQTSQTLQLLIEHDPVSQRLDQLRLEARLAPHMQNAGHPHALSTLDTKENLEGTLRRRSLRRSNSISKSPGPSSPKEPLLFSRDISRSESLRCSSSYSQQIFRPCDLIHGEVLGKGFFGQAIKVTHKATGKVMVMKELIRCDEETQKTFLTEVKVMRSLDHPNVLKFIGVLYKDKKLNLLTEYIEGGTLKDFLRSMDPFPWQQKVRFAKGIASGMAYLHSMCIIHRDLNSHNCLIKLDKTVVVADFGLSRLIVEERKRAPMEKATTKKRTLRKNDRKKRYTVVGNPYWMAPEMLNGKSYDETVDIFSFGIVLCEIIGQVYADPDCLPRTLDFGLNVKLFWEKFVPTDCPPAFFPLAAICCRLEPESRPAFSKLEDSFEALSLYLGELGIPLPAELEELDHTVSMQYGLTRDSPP
Chain of NEK6 (Q9HC98 whole entry): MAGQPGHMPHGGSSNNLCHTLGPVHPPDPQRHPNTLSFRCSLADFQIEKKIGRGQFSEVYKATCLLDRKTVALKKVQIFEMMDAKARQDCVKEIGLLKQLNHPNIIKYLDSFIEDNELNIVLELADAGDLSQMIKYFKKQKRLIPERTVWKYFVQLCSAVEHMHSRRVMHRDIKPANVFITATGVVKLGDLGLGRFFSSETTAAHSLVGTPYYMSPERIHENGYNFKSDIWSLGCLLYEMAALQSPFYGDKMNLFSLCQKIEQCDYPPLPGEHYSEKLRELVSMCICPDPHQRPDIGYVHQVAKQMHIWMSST
Chain of DSTYK (Q6XUX3 whole entry): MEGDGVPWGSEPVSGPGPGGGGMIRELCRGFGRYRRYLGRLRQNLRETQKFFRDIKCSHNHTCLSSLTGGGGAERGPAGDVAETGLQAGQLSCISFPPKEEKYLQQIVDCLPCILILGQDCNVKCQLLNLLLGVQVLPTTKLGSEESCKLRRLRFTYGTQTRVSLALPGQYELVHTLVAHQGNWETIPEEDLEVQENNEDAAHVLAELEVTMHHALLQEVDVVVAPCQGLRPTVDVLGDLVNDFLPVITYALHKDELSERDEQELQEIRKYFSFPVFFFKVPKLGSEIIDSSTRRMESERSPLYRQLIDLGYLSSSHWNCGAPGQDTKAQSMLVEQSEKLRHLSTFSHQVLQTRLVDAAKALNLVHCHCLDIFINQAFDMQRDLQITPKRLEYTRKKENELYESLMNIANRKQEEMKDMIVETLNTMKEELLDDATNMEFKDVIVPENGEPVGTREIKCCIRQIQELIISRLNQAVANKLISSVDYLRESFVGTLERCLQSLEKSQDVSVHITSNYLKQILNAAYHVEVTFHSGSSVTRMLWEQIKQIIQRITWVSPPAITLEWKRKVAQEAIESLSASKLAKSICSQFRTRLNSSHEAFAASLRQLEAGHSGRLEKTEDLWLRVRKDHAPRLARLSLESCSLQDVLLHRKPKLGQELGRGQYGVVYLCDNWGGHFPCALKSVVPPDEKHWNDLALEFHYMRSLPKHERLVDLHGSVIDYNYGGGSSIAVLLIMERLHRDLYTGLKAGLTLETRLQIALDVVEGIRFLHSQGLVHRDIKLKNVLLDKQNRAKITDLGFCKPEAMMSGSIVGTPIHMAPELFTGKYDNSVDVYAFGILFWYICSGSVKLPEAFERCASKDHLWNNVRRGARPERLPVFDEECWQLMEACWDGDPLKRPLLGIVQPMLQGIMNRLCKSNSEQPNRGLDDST
Chain of STK3 (Q13188 whole entry): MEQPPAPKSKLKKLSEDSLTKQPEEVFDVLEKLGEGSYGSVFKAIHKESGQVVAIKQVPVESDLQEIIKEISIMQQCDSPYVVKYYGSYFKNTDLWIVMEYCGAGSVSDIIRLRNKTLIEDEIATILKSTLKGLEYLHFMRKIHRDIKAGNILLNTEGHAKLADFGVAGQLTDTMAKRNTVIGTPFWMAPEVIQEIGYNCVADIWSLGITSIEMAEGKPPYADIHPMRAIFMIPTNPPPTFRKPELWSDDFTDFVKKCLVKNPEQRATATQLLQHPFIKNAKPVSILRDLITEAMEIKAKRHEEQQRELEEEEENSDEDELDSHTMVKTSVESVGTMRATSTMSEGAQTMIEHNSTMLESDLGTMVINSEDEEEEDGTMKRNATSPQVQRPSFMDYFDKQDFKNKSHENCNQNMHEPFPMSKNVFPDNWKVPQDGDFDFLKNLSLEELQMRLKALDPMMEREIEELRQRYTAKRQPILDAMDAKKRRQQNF
Chain of BMPR1A (P36894 whole entry): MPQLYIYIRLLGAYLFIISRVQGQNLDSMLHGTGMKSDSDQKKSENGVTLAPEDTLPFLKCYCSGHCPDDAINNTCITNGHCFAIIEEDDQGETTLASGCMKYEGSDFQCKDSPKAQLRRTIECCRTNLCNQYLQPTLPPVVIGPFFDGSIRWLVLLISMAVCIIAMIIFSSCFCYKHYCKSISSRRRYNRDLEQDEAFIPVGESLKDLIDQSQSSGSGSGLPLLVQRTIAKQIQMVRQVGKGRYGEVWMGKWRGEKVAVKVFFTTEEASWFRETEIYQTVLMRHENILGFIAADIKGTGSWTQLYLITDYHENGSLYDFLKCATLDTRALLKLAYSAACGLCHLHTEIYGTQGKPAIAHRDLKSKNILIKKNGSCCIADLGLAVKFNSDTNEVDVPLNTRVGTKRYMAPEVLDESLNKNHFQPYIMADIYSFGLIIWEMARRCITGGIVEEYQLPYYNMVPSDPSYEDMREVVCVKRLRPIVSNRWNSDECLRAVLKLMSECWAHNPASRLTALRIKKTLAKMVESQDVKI
Chain of ACVR2B (Q13705 whole entry): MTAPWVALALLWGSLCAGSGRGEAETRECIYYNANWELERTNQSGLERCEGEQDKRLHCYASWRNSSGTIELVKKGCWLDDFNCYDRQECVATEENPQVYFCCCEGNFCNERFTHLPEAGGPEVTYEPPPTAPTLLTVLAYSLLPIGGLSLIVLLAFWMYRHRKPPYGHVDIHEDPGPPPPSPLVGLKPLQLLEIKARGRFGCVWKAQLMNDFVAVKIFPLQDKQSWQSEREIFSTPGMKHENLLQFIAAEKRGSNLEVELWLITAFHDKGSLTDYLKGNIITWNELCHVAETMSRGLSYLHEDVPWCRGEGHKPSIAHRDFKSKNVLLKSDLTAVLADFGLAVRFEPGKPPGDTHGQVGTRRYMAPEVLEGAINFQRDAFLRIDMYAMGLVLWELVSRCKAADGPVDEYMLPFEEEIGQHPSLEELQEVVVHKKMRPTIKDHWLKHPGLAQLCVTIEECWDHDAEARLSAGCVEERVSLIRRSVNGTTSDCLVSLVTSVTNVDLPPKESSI

The IC50 is the concentration that inhibits the measured activity by half. As for `CN1CCN(c2ccc(Nc3ncc(C#N)c(Nc4ccccc4C(N)=O)n3)cc2)CC1.Cl` [TCMDC-134116], the IC50 on ACVR2B was more than 20 µM; against CDK6, 0.16 µM and 0.18 µM; on IRAK1 it was 0.16 µM and 0.14 µM; against MAP3K3, 0.31 µM; against NEK6, 0.26 µM.
With `Cl.NCC1(c2nc(-c3ccc(Cl)c(O)c3)c(-c3ccncc3)[nH]2)CCCCC1` [TCMDC-141154], the IC50 on BMPR1A, against CDK6, at DSTYK, at IRAK1, against LIMK2 and at NEK6 was more than 20 µM in each case. Further, the IC50 at STK3 is more than 20 µM; against TAOK3 it was 1.8 µM and 0.91 µM.
On to `CN(C)CC(O)COc1ccc(Nc2ncc([N+](=O)[O-])c(Nc3ccccc3O)n2)cc1.O=C(O)C(F)(F)F` (centres unmarked) [TCMDC-141399], for which the IC50 against ACVR2B was more than 20 µM; on BMPR1A, more than 20 µM; on DSTYK, more than 20 µM; at LIMK2 it was more than 20 µM; against MAP3K3, 6 µM and > 20 µM; against STK3 it was more than 20 µM. The compound also yielded an IC50 against TAOK3 of more than 20 µM.
